Assay results: patent US12059413B2, “Methods of inhibiting viruses using compositions targeting TSG101-ubiquitin interaction” (The Research Foundation for the State University of New York, priority 2016, dated 2024)
pEC50: −log10 of the molar value.

How the values were obtained:
Type in all cases: cell-based
HIV-1 Gag VLP = test: Gag VLP production / budding, Western blot analysis
Experimental: (§1) FIG. 15A-D. N16 inhibits HIV-1 NL4-3 and Gag VLP production. A) Effect on virus production. Virus particles from N16-treated 293T cells transfected with pNL4-3 as determined by ELISA assay. Top, The compound was added 6 hr prior to DNA transfection and tissue culture media was harvested 24 hr later. Bottom, The compound was added at the indicated concentration 24 hr after DNA transfection and tissue culture media was harvested 24 hr later. Assay values were normalized to that of the DMSO carrier control. B) Effect on virus infectivity. Infectious viral particles per ng p24 as determined by MAGI assay. C) Left, Electron microscopy of particles at cell surface at 24 hr post-N16 addition; Right, Quantitative analysis of budding morphologies. Cells expressing WT- or P7L-NL4-3 were exposed to DMSO carrier or 50 μM N16. Arrows indicate emerging ‘Early’ buds. D) Effects on Gag VLP production. Top, Western blot analysis. Cells treated at the indicated concentration were transfected with DNA encoding Gag-HA. At the end of the treatment period, tissue culture media was removed for VLP isolation. Cells were suspended in lysis buffer. Blots were probed for Gag-HA and actin. Bottom, Quantitative analysis. Ratio of VLP- or cell-associated Gag to actin normalized to the mock-treated control (0 μM N16). Number of independent trials (n) for A), B), C), and D)=3, 2, 2 and 3, respectively.
FIG. 21A-B. N16 suppresses the inhibitory effect of fusing DUb to Gag. […] Top, Western blot analysis of Gag in cushioned VLP samples; Middle, Gag and actin in cell lysates; Bottom, Quantitative analysis of VLP release efficiency normalized to the WT Gag control (Gag and Gag-DUb differed in sample size in order to yield visible signal); B) Effect of N16 on Gag and GagDUb VLP production. […] Bottom, Quantitative analysis of VLP production (left), lysate Gag (center) and VLP release efficiency (right) normalized to the mock-treated control. […]
(§2) For production of virus particles, 293T cells were transfected with pNL4-3-ΔEnv and pIIIB Env3-1 plasmids and for virus-like particles (VLP), with pCMV-Gag-HA as previously described (Watanabe et al. (2013)). For specific infectivity, media-associated p24 was determined by ELISA (Immunodiagnostics, Inc.) and equivalent amounts of p24 were used to infect HeLa-CD4+-LTR-3 gal cells for infectivity measurement by the multinuclear activation of a galactosidase indicator (MAGI) assay. […] For cell-associated Gag analysis, cell pellets were lysed with either Triton X-100 or RIPA buffer with complete mini protease inhibitor cocktail (Roche) and analyzed by Western blotting. Protein bands were visualized using an infrared-based imaging system (Odyssey, LI-COR Biotechnology) and band intensities measured using the Li-Cor Odyssey software version 2.1.15. […]

[1] = tested on: Tsg101 midbody localization; test: Tsg101 midbody localization in dividing cells; conditions: N16 50 uM; 200 cells sampled; 12% in absence
Experimental: FIG. 20A-C. N16 inhibition is virus-specific. A) N16 IC50 for Hela and 293T cells. […] Values were calculated by measuring metabolic activity (WST-1 Assay, Roche Applied Science) after cells were grown for 24 hr in N16. Data points represent the mean of 2 assays, 3 time points each for each cell line. […] Values in the absence or presence of N16 (50 uM) were 12% and 13%, respectively). C) N16 effect on EGF-stimulated EFGR degradation. Cells maintained for 24 hr in media containing DMSO alone or DMSO and N16 were stimulated with EGF ligand for a 90 min period and then assessed for EGFR steady-state level by Western analysis. EGFR levels for unstimulated and stimulated sample pairs are shown. A) n=2; B) n=2; C) n=2.
We investigated the specificity of the inhibitory effect. F15 and N16 impaired Tsg101-co-localization with Gag on the plasma membrane (c.f, FIG. 19) and reduced release of the VLPs assembled by Gag (c.f, FIG. 15). […] Cell metabolic activity was not affected after exposure to N16 for 24 hr; it decreased by less than 10% after exposure to N16 for 48 hr (not shown). Tsg101 localization to the midbody of dividing cells requires its recruitment to that location by centrosomal protein of 55k (CEP55) which binds a site in the Tsg101 Pro-rich domain (aa 154-166) (Lee, H. H., et al. (2008)). […]

HIV-1 NL4-3 = test: Viral particle production from 293T cells transfected with pNL4-3, p24 ELISA
Experimental: as §1, with “Cells were suspended in lysis buffer. Blots were probed for Gag-HA and actin.” left out, “Ratio of VLP- or cell-associated Gag to actin normalized to the mock-treated control (0 μM N16). Number of independent trials (n) for A), B), C), and D)=3, 2, 2 and 3, respectively.” left out
as §2, with “2.1.15. Virus particle release efficiency was calculated [VLP signal intensity/(VLP signal intensity+cell lysate signal intensity)].” for “2.1.15.”

**Q.** With `COc1ccc2nc([S@@+]([O-])Cc3ncc(C)c(OC)c3C)[nH]c2c1` [F15, esomeprazole] as the molecule, how does the “effectiveness in tissue culture budding assay” value (HIV-1 Gag VLP; compared with Tenatoprazole) read?
**A.** less effective than Tenatoprazole

**Q.** How did the “frequency of cells exhibiting Tsg101 midbody localization” value [1] turn out when `COc1ccc2[nH]c([S+]([O-])Cc3ncc(C)c(OC)c3C)nc2n1` (centres unmarked) [N16, tenatoprazole] was run?
**A.** 13%

**Q.** And the pEC50 (HIV-1 NL4-3; Human immunodeficiency virus 1, NL43, HEK-293T, 6 h, N16 added six hours before transfection, 293T cells)?
**A.** 4.30 to 4.60

**Q.** What about the “effect on budding when added 24 hr post-transfection” value (HIV-1 NL4-3; addition at 24 hr post-transfection, even at higher concentrations) of the same molecule?
**A.** little effect

**Q.** And the “lowest concentration achieved in tissue culture assays under optimal conditions” value (HIV-1 NL4-3; c.f. FIG. 15)?
**A.** 25 to 50 µM

**Q.** What about the “budding directed by WT Gag” value (HIV-1 Gag VLP; 50 μM N16, 293T) of the same molecule?
**A.** inhibited

**Q.** And the “Gag intracellular accumulation and VLP formation” value (HIV-1 Gag VLP; 293T, FIG. 15D)?
**A.** dose-dependent reduction

**Q.** And the “budding of the Gag-DUb fusion” value (HIV-1 Gag VLP; N16 present, 293T)?
**A.** not inhibited
